Experiments:
[1] = compound: CCN1CCN(Cc2ccc(Nc3ncc(F)c(-c4cc(F)c5nc(C)n(C(C)C)c5c4)n3)nc2)CC1; assay: increase in dead-cell fraction, 72 h; higher = more death;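 also: breast cancer cell lines in 384-well plates, stained with Hoechst plus LIVE/DEAD far red dye and imaged, cells above an LDR intensity threshold counted dead, Hoechst-negative corpses included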
Flavopiridol [2] = compound: T1, CN1CC[C@H](c2c(O)cc(O)c3c(=O)cc(-c4ccccc4Cl)oc23)[C@H](O)C1 [Flavopiridol]; assay: as above
[3] = compound: CC(=O)c1c(C)c2cnc(Nc3ccc(N4CCNCC4)cn3)nc2n(C2CCCC2)c1=O; assay: GR value, 72 h; higher = faster growth (1 = untreated, <0 = killing);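 also: breast cancer and non-malignant breast epithelial lines, nine half-log doses, viable cells counted by Hoechst and LIVE/DEAD dye imaging versus time-zero plates and DMSO controls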
[4] = compound: CCN1CCN(Cc2ccc(Nc3ncc(F)c(-c4cc(F)c5nc(C)n(C(C)C)c5c4)n3)nc2)CC1; assay: as above
THZ1 = compound: CN(C)C/C=C/C(=O)Nc1ccc(C(=O)Nc2cccc(Nc3ncc(Cl)c(-c4c[nH]c5ccccc45)n3)c2)cc1 [THZ1]; assay: as above
Neratinib/HKI272 = compound: CCOc1cc2ncc(C#N)c(Nc3ccc(OCc4ccccn4)c(Cl)c3)c2cc1NC(=O)/C=C/CN(C)C [Neratinib/HKI272]; assay: as above
THZ531 = compound: CN(C)C/C=C/C(=O)Nc1ccc(C(=O)N2CCC[C@@H](Nc3ncc(Cl)c(-c4c[nH]c5ccccc45)n3)C2)cc1 [THZ531]; assay: as above
BSJ-03-123 = compound: CC(=O)c1c(C)c2cnc(Nc3ccc(N4CCN(CCOCCOCCOCCNC(=O)COc5cccc6c5C(=O)N(C5CCC(=O)NC5=O)C6=O)CC4)cn3)nc2n(C2CCCC2)c1=O [BSJ-03-123]; assay: as above
YKL-5-124 = compound: C=CC(=O)Nc1ccc(C(=O)Nc2[nH]nc3c2CN(C(=O)N[C@H](CN(C)C)c2ccccc2)C3(C)C)cc1 [YKL-5-124]; assay: as above
LEE011/Ribociclib = compound: CN(C)C(=O)c1cc2cnc(Nc3ccc(N4CCNCC4)cn3)nc2n1C1CCCC1 [LEE011/Ribociclib]; assay: as above
Flavopiridol [5] = compound: T1, Flavopiridol; assay: as above
[6] = compound: CCc1cnn2c(NCc3ccc[n+]([O-])c3)cc(N3CCCC[C@H]3CCO)nc12; assay: as above

Question: With CAL120 as the cell line, how does the “increase in dead-cell fraction” value ([1]; 0.001 µM) read?
Answer: -0.0028

Question: What about the “increase in dead-cell fraction” value ([1]; 0.003162 µM) of the same cell line?
Answer: -0.0021

Question: What about the “increase in dead-cell fraction” value ([1]; 0.01 µM) of the same cell line?
Answer: 0.0053

Question: And the “increase in dead-cell fraction” value ([1]; 0.03162 µM)?
Answer: 0.0134

Question: What about the “increase in dead-cell fraction” value ([1]; 0.1 µM) of the same cell line?
Answer: 0.0398

Question: And the “increase in dead-cell fraction” value ([1]; 0.3162 µM)?
Answer: 0.0603

Question: And the “increase in dead-cell fraction” value ([1]; 1 µM)?
Answer: 0.146

Question: What about the “increase in dead-cell fraction” value ([1]; 3.162 µM) of the same cell line?
Answer: 0.248

Question: And the “increase in dead-cell fraction” value ([1]; 10 µM)?
Answer: 0.249

Question: And the “increase in dead-cell fraction” value (Flavopiridol [2]; 0.0001 µM)?
Answer: -0.0013

Question: What about the “increase in dead-cell fraction” value (Flavopiridol [2]; 0.0003162 µM) of the same cell line?
Answer: 0.002

Question: And the “increase in dead-cell fraction” value (Flavopiridol [2]; 0.001 µM)?
Answer: 0.0027

Question: And the “increase in dead-cell fraction” value (Flavopiridol [2]; 0.003162 µM)?
Answer: -0.0004

Question: And the “increase in dead-cell fraction” value (Flavopiridol [2]; 0.01 µM)?
Answer: -0.0008

Question: What about the “increase in dead-cell fraction” value (Flavopiridol [2]; 0.03162 µM) of the same cell line?
Answer: 0.0016

Question: And the “increase in dead-cell fraction” value (Flavopiridol [2]; 0.1 µM)?
Answer: 0.0004

Question: What about the “increase in dead-cell fraction” value (Flavopiridol [2]; 0.3162 µM) of the same cell line?
Answer: 0.0194

Question: And the “increase in dead-cell fraction” value (Flavopiridol [2]; 1 µM)?
Answer: 0.0425

Question: And the GR value ([3]; 0.0003162 µM)?
Answer: 1.02 GR

Question: And the GR value ([3]; 0.001 µM)?
Answer: 1.01 GR

Question: And the GR value ([3]; 0.003162 µM)?
Answer: 0.992 GR

Question: And the GR value ([3]; 0.01 µM)?
Answer: 0.953 GR

Question: And the GR value ([3]; 0.03162 µM)?
Answer: 0.815 GR

Question: And the GR value ([3]; 0.1 µM)?
Answer: 0.756 GR

Question: And the GR value ([3]; 0.3162 µM)?
Answer: 0.761 GR

Question: And the GR value ([3]; 1 µM)?
Answer: 0.743 GR

Question: And the GR value ([3]; 3.162 µM)?
Answer: 0.671 GR

Question: What about the GR value ([4]; 0.001 µM) of the same cell line?
Answer: 0.93 GR

Question: And the GR value ([4]; 0.003162 µM)?
Answer: 0.85 GR

Question: What about the GR value ([4]; 0.01 µM) of the same cell line?
Answer: 0.715 GR

Question: What about the GR value ([4]; 0.03162 µM) of the same cell line?
Answer: 0.659 GR

Question: And the GR value ([4]; 0.1 µM)?
Answer: 0.609 GR

Question: And the GR value ([4]; 0.3162 µM)?
Answer: 0.594 GR

Question: What about the GR value ([4]; 1 µM) of the same cell line?
Answer: 0.377 GR

Question: What about the GR value ([4]; 3.162 µM) of the same cell line?
Answer: -0.0553 GR

Question: And the GR value ([4]; 10 µM)?
Answer: -0.138 GR

Question: What about the GR value (THZ1; 0.0001 µM) of the same cell line?
Answer: 1.02 GR

Question: What about the GR value (THZ1; 0.0003162 µM) of the same cell line?
Answer: 0.971 GR

Question: What about the GR value (THZ1; 0.001 µM) of the same cell line?
Answer: 0.979 GR

Question: What about the GR value (THZ1; 0.003162 µM) of the same cell line?
Answer: 0.92 GR

Question: What about the GR value (THZ1; 0.01 µM) of the same cell line?
Answer: 0.938 GR

Question: What about the GR value (THZ1; 0.03162 µM) of the same cell line?
Answer: 0.656 GR

Question: What about the GR value (THZ1; 0.1 µM) of the same cell line?
Answer: 0.324 GR

Question: What about the GR value (THZ1; 0.3162 µM) of the same cell line?
Answer: 0.154 GR

Question: What about the GR value (THZ1; 1 µM) of the same cell line?
Answer: -0.159 GR

Question: And the GR value (Neratinib/HKI272; 0.0003162 µM)?
Answer: 0.996 GR

Question: What about the GR value (Neratinib/HKI272; 0.001 µM) of the same cell line?
Answer: 1.03 GR

Question: And the GR value (Neratinib/HKI272; 0.003162 µM)?
Answer: 0.97 GR

Question: And the GR value (Neratinib/HKI272; 0.01 µM)?
Answer: 0.973 GR

Question: What about the GR value (Neratinib/HKI272; 0.03162 µM) of the same cell line?
Answer: 0.999 GR

Question: And the GR value (Neratinib/HKI272; 0.1 µM)?
Answer: 0.876 GR

Question: And the GR value (Neratinib/HKI272; 0.3162 µM)?
Answer: 0.618 GR

Question: And the GR value (Neratinib/HKI272; 1 µM)?
Answer: 0.355 GR

Question: What about the GR value (Neratinib/HKI272; 3.162 µM) of the same cell line?
Answer: -0.262 GR

Question: What about the GR value (THZ531; 0.0001 µM) of the same cell line?
Answer: 1.03 GR

Question: What about the GR value (THZ531; 0.0003162 µM) of the same cell line?
Answer: 1.03 GR

Question: And the GR value (THZ531; 0.001 µM)?
Answer: 0.934 GR

Question: What about the GR value (THZ531; 0.003162 µM) of the same cell line?
Answer: 1.04 GR

Question: And the GR value (THZ531; 0.01 µM)?
Answer: 1.06 GR

Question: And the GR value (THZ531; 0.03162 µM)?
Answer: 0.891 GR

Question: And the GR value (THZ531; 0.1 µM)?
Answer: 0.589 GR

Question: And the GR value (THZ531; 0.3162 µM)?
Answer: 0.275 GR

Question: What about the GR value (THZ531; 1 µM) of the same cell line?
Answer: -0.0063 GR

Question: And the GR value (BSJ-03-123; 0.001 µM)?
Answer: 0.923 GR

Question: And the GR value (BSJ-03-123; 0.003162 µM)?
Answer: 0.923 GR

Question: What about the GR value (BSJ-03-123; 0.01 µM) of the same cell line?
Answer: 0.969 GR

Question: And the GR value (BSJ-03-123; 0.03162 µM)?
Answer: 0.906 GR

Question: What about the GR value (BSJ-03-123; 0.1 µM) of the same cell line?
Answer: 0.861 GR

Question: What about the GR value (BSJ-03-123; 0.3162 µM) of the same cell line?
Answer: 0.9 GR

Question: What about the GR value (BSJ-03-123; 1 µM) of the same cell line?
Answer: 0.755 GR

Question: What about the GR value (BSJ-03-123; 3.162 µM) of the same cell line?
Answer: 0.759 GR

Question: What about the GR value (BSJ-03-123; 10 µM) of the same cell line?
Answer: 0.234 GR

Question: And the GR value (YKL-5-124; 0.001 µM)?
Answer: 0.776 GR

Question: And the GR value (YKL-5-124; 0.003162 µM)?
Answer: 0.599 GR

Question: And the GR value (YKL-5-124; 0.01 µM)?
Answer: 0.467 GR

Question: And the GR value (YKL-5-124; 0.03162 µM)?
Answer: 0.385 GR

Question: And the GR value (YKL-5-124; 0.1 µM)?
Answer: 0.377 GR

Question: What about the GR value (YKL-5-124; 0.3162 µM) of the same cell line?
Answer: 0.313 GR

Question: And the GR value (YKL-5-124; 1 µM)?
Answer: 0.328 GR

Question: And the GR value (YKL-5-124; 3.162 µM)?
Answer: 0.324 GR

Question: And the GR value (YKL-5-124; 10 µM)?
Answer: 0.187 GR

Question: What about the GR value (LEE011/Ribociclib; 0.001 µM) of the same cell line?
Answer: 0.879 GR

Question: And the GR value (LEE011/Ribociclib; 0.003162 µM)?
Answer: 0.818 GR

Question: And the GR value (LEE011/Ribociclib; 0.01 µM)?
Answer: 0.765 GR

Question: What about the GR value (LEE011/Ribociclib; 0.03162 µM) of the same cell line?
Answer: 0.809 GR

Question: What about the GR value (LEE011/Ribociclib; 0.1 µM) of the same cell line?
Answer: 0.703 GR

Question: And the GR value (LEE011/Ribociclib; 0.3162 µM)?
Answer: 0.732 GR

Question: And the GR value (LEE011/Ribociclib; 1 µM)?
Answer: 0.646 GR

Question: What about the GR value (LEE011/Ribociclib; 3.162 µM) of the same cell line?
Answer: 0.631 GR

Question: And the GR value (LEE011/Ribociclib; 10 µM)?
Answer: 0.664 GR

Question: What about the GR value (Flavopiridol [5]; 0.0001 µM) of the same cell line?
Answer: 0.984 GR

Question: What about the GR value (Flavopiridol [5]; 0.0003162 µM) of the same cell line?
Answer: 0.934 GR

Question: And the GR value (Flavopiridol [5]; 0.001 µM)?
Answer: 0.919 GR

Question: And the GR value (Flavopiridol [5]; 0.003162 µM)?
Answer: 0.917 GR

Question: What about the GR value (Flavopiridol [5]; 0.01 µM) of the same cell line?
Answer: 0.901 GR

Question: What about the GR value (Flavopiridol [5]; 0.03162 µM) of the same cell line?
Answer: 0.88 GR

Question: What about the GR value (Flavopiridol [5]; 0.1 µM) of the same cell line?
Answer: 0.719 GR

Question: What about the GR value (Flavopiridol [5]; 0.3162 µM) of the same cell line?
Answer: 0.342 GR

Question: What about the GR value (Flavopiridol [5]; 1 µM) of the same cell line?
Answer: -0.0548 GR

Question: And the GR value ([6]; 0.0001 µM)?
Answer: 1.01 GR

Question: What about the GR value ([6]; 0.0003162 µM) of the same cell line?
Answer: 0.995 GR

Question: What about the GR value ([6]; 0.001 µM) of the same cell line?
Answer: 1.03 GR

Question: What about the GR value ([6]; 0.003162 µM) of the same cell line?
Answer: 1.01 GR

Question: And the GR value ([6]; 0.01 µM)?
Answer: 0.495 GR

Question: What about the GR value ([6]; 0.03162 µM) of the same cell line?
Answer: -0.0996 GR

Question: And the GR value ([6]; 0.1 µM)?
Answer: -0.125 GR

Question: What about the GR value ([6]; 0.3162 µM) of the same cell line?
Answer: -0.129 GR

Question: What about the GR value ([6]; 1 µM) of the same cell line?
Answer: -0.116 GR
